Test results reported in article PMC6017703, “Synthesis and Biological Evaluation of New Thiosemicarbazone Derivative Schiff Bases as Monoamine Oxidase Inhibitory Agents” (Molecules : A Journal of Synthetic Chemistry and Natural …, 2017).

Target: T1, monoamine oxidase A (MAO-A) (Homo sapiens, UniProt P21397)
T1 construct: gene MAOA; recombinant MAO-A
T1 sequence (P21397 1-527): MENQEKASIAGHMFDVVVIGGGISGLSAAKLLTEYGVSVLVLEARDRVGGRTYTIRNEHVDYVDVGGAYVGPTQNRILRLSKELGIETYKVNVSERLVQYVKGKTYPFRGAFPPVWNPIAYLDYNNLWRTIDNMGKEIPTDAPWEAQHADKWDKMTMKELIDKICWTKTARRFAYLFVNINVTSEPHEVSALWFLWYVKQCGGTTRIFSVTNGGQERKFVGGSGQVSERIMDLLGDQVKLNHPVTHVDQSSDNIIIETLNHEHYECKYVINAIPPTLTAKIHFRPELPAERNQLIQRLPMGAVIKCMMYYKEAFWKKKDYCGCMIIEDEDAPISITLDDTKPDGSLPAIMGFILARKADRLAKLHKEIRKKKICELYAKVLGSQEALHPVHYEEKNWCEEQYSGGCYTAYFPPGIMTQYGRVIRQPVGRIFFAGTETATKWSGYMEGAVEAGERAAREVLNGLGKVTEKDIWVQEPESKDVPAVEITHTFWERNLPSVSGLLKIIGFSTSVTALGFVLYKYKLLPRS
Experiment: fluorometric Ampliflu Red/HRP assay with tyramine; Lineweaver-Burk kinetics (IC50 also […])
Assay type: biochemical

Ki: 142 nM
Structure (SMILES): S=C(NN=Cc1ccc(Sc2ccc(Cl)cc2)cc1)NC1CCCCC1 [B24, N-Cyclohexyl-2-[4-[(4-chlorophenyl)thio]benzylidene]hydrazine-1-carbothioamide]
